Data set [1] relates to human red blood cells (hRBC). The experiment in a line: Hemolysis. It counts as cell-based. The method, boiled down: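 Percent lysis taken as OD540 of peptide-treated sample over OD540 of the water/0.1% Triton X-100 full-lysis control, with PBS giving 0%. Peptides at 100 μM exposed to PBS-washed human RBCs (20% v/v) for 1 hour at 37° C. before centrifugation and 20-fold dilution of supernatant.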

Data set [2] can be described thus: in vitro. It counts as in vitro ADME. The conditions noted are these: plasma. The protocol: 405 μl of plasma/albumin solution were placed in a polypropylene (PP) tube and spiked with 45 μl of compound from a 100 μM solution B, derived from 135 μl of PBS and 15 μl of 1 mM peptide in PBS, pH 7.4. 150 μl aliquots were transferred into individual wells of the 10 kDa filter plate (Millipore MAPPB 1010 Biomax membrane). For “0 minutes controls”: 270 μl of PBS were placed in a PP tube and 30 μl of stock solution B was added and vortexed. 150 μl of control solution was placed into one well of the filter plate and serves as “filtered control”.
Further 150 μl of control solution were placed directly into a receiver well (reserved for filtrate) and serve as “not-filtered control”. The entire plate including evaporation lid was incubated for 60 min at 37° C. Plasma samples (rat plasma: Harlan Sera lab UK, human plasma: Blutspendezentrum Zürich) were centrifuged at least for 2 h at 4300 rpm (3500 g) and 15° C. in order to yield 100 μl filtrate. For “serum albumin”-samples (freshly prepared human albumin: Sigma A-4327, rat albumin: Sigma A-6272, all at 40 mg/ml concentration in PBS) approximately 1 hour of centrifugation is sufficient. The filtrates in the receiver PP plate were analysed by LC/MS as followes: Column: Jupiter C18 (Phenomenex), mobile phases: (A) 0.1% formic acid in water and (B) acetonitrile, gradient: 5%-100% (B) in 2 minutes, electrospray ionization, MRM detection (triple quadrupole). The peak areas were determined and triplicate values are averaged. The binding is expressed in percent of the (filtered and not-filtered time point 0 min) control 1 and 2 by: 100−(100*T60/T0). The average from these values is then calculated (see ref. 9 below).

Some results are limits rather than exact numbers.

In turn, `N=C(N)NCCC[C@@H]1NC(=O)[C@@H]2CSSC[C@H](NC(=O)[C@H](Cc3ccc4ccccc4c3)NC(=O)[C@H](CCCNC(=N)N)NC(=O)[C@H](CCCNC(=N)N)NC(=O)[C@H]3CCCN3C(=O)CNC1=O)C(=O)N[C@@H](Cc1ccc(O)cc1)C(=O)N[C@@H](CCCNC(N)=O)C(=O)N[C@@H](CCCCN)C(=O)N1CCC[C@@H]1C(=O)N1CCC[C@H]1C(=O)N[C@@H](Cc1ccc(O)cc1)C(=O)N[C@@H](CCCNC(=N)N)C(=O)N[C@@H](CCCNC(N)=O)C(=O)N2` [Ex. 51] returned a Hemolysis at 100 μM in data set [1] of 0%. For the same compound, the half-life (as a rule, how long it takes for the measured level to halve) at 10 μM was 4.77 h in data set [2] (human) and more than 5 h in data set [2] (rat).

Values taken from patent publication US8895695B2, “Template-fixed beta-hairpin peptidomimetics with CXCR4 antagonizing activity” (priority 2003, dated 2014).
